Laboratory results from patent US20080031982A1 (Metaproteomics, LLC, priority 2006, published 2008).

Assays:
cKit(D816H) = cKit(D816H) (Homo sapiens, UniProt P10721, D816H); experiment: KinaseProfiler Assay
cSRC = cSRC (Homo sapiens, UniProt P12931); experiment: KinaseProfiler Assay
CHK1 = target: T1, CHK1 (Homo sapiens, UniProt O14757); experiment: KinaseProfiler Assay
T1 sequence (O14757 1-476): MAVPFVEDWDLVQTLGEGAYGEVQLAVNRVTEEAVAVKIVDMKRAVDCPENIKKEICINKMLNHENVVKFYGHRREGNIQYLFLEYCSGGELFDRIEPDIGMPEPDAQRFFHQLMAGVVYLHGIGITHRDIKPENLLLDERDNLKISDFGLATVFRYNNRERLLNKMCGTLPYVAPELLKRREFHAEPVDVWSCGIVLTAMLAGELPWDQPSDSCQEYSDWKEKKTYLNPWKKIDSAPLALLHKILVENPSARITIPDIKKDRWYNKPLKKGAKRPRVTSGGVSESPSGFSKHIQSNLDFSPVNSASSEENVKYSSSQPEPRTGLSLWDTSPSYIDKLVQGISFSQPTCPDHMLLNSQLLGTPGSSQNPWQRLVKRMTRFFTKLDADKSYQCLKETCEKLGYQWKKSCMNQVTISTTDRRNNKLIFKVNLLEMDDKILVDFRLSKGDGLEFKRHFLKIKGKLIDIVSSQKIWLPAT

PKCα = PKCα (Homo sapiens, UniProt P17252); experiment: KinaseProfiler Assay
CK1γ1 = CK1γ1 (Homo sapiens, UniProt Q9HCP0); experiment: KinaseProfiler Assay
CK1γ1, sequence (Q9HCP0 whole entry): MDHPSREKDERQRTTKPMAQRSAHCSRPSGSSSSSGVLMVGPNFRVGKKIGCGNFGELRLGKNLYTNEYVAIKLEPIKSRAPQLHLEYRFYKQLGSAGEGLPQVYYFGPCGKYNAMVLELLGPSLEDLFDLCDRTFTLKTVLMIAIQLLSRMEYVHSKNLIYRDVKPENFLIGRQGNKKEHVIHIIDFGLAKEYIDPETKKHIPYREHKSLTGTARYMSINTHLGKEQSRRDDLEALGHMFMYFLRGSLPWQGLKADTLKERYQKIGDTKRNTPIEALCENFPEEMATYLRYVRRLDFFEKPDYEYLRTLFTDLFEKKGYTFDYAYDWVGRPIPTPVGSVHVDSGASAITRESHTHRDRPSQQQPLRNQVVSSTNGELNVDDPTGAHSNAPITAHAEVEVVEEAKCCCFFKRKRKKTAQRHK

3T3-L1 adipocytes = experiment: Lipogenesis in 3T3-L1 adipocytes (Oil Red O / BODIPY); assay type: cell-based, murine; conditions: relative to solvent and positive controls
Protocol: Prior to experiments, cells were cultured in DMEM containing 10% FBS-HI added 50 units penicillin/ml and 50 μg streptomycin/ml, and maintained in log phase prior to experimental setup. Cells were grown in a 5% CO2 humidified incubator at 37° C. Components of the pre-confluent medium included (1) 10% FBS/DMEM containing 4.5 g glucose/L; (2) 50 U/ml penicillin; and (3) 50 μg/ml streptomycin. Growth medium was made by adding 50 ml of heat inactivated FBS and 5 ml of penicillin/streptomycin to 500 ml DMEM. This medium was stored at 4° C. Before use, the medium was warmed to 37° C. in a water bath.
3T3-T1 cells were seeded at an initial density of 6×10^4 cells/cm^2 in 24-well plates. For two days, the cells were allowed grow to reach confluence. Following confluence, the cells were forced to differentiate into adipocytes by the addition of differentiation medium; this medium consisted of (1) 10% FBS/DMEM (high glucose); (2) 0.5 mM methylisobutylxanthine; (3) 0.5 μM dexamethasone and (4) 10 μg/ml insulin (MDI medium). After three days, the medium was changed to post-differentiation medium consisting of 10 μg/ml insulin in 10% FBS/DMEM.
Whenever fresh media were added, fresh test material was also added.
Oil Red 0 Staining—Triglyceride content of D6/D7-differentiated 3T3-L1 cells was estimated with Oil Red 0 according to the method of Kasturi and Joshi [Kasturi, R. and Joshi, V. C. […] Monolayer cells were washed with PBS (phosphate buffered saline, Mediatech) and fixed with 10% formaldehyde for ten minutes. Fixed cells were stained with an Oil Red 0 working solution of three parts 0.6% Oil Red O/isopropanol stock solution and two parts water for one hour and the excess stain was washed once with water. The resulting stained oil droplets were extracted from the cells with isopropanol and quantified by spectrophotometric analysis at 540 nm (MEL312e BIO-KINETICS READER, Bio-Tek Instruments, Winooski, Vt.).
Briefly, media were removed and cells were washed once with non-sterile PBS. A stock 1000× BODIPY/DMSO solution was made by dissolving 1 mg BODIPY in 1 ml DMSO (1,000 μg BODIPY/ml). […] One-hundred μl of this working solution (1 μg BODIPY) was added to each well of a 96-well microtiter plate. After 15 min on an orbital shaker (DS-500, VWR Scientific Products, South Plainfield, N.J.) at ambient temperature, the cells were washed with 100 μl PBS followed by the addition of 100 μl PBS for reading for spectrofluorometric determination of BODIPY incorporation into the cells.
Nonpolar lipid incorporation was represented relative to the nonpolar lipid accumulation of fully differentiated cells in the solvent controls.

EphA8 = target: T2, EphA8 (Homo sapiens, UniProt P29322); experiment: KinaseProfiler Assay
T2 sequence (P29322 28-1005): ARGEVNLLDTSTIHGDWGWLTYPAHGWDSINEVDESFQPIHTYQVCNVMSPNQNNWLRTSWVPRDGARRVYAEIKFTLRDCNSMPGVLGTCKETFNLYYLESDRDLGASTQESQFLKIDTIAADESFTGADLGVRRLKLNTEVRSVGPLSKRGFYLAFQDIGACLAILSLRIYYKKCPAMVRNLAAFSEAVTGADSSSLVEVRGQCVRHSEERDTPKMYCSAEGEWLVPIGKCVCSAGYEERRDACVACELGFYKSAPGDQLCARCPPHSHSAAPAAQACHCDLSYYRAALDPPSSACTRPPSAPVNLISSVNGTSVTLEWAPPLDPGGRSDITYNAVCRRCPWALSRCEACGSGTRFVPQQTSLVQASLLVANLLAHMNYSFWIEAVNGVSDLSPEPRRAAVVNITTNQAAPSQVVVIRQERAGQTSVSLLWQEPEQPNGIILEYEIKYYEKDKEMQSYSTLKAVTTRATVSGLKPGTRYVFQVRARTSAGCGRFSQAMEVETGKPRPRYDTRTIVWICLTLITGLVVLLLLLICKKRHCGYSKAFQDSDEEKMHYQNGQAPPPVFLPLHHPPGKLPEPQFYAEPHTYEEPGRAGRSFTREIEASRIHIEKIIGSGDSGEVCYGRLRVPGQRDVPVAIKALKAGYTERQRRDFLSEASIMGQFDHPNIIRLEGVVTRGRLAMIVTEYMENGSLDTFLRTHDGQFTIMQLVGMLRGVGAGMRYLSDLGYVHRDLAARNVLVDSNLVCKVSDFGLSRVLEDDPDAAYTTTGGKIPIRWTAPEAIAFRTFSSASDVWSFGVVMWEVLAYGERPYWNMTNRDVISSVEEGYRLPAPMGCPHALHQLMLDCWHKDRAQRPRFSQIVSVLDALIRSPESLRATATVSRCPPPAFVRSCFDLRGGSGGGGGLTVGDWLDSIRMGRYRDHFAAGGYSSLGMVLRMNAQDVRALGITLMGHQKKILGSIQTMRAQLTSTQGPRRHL

MAPKAP-K2 = MAPKAP-K2 (Homo sapiens, UniProt P49137); experiment: KinaseProfiler Assay
MAPKAP-K2, sequence (P49137 whole entry): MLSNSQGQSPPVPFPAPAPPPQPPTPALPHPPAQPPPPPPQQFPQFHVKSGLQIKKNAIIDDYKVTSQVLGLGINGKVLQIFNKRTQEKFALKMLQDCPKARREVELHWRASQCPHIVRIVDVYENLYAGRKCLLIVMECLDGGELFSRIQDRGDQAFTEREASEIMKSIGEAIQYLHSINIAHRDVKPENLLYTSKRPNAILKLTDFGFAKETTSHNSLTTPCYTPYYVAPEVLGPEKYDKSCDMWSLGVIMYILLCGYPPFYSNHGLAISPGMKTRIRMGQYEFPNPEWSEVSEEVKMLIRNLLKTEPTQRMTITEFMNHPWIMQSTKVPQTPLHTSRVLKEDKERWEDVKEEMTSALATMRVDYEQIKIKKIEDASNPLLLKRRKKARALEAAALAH

CK1γ3 = CK1γ3 (Homo sapiens, UniProt Q9Y6M4); experiment: KinaseProfiler Assay
CK1γ3, sequence (Q9Y6M4 whole entry): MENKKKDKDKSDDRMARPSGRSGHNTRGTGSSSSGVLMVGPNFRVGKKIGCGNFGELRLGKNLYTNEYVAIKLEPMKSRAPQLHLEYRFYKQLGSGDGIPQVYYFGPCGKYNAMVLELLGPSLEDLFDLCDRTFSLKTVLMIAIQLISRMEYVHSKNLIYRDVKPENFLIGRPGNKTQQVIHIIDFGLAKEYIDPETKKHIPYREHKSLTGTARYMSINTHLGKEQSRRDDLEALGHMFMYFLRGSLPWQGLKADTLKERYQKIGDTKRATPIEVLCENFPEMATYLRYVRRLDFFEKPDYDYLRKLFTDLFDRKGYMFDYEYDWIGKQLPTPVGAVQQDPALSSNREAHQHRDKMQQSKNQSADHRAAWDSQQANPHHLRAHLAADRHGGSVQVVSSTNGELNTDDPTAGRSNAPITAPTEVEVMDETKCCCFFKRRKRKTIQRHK

p70S6K = p70S6K (Homo sapiens, UniProt P23443); experiment: KinaseProfiler Assay
p70S6K, sequence (P23443 whole entry): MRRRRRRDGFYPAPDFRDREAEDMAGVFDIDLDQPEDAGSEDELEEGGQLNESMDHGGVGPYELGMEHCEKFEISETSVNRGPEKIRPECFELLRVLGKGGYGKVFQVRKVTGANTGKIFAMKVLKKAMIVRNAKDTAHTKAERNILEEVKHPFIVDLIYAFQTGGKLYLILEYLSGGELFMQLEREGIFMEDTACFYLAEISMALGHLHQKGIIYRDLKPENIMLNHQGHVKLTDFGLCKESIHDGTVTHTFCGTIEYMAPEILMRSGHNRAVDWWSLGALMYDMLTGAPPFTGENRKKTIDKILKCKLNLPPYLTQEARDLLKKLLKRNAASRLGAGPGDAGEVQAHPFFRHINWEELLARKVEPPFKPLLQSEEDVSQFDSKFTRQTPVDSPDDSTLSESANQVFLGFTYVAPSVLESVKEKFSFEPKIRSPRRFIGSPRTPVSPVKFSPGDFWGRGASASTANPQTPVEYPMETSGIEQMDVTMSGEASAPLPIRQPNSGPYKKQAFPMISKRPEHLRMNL

cKit(D816H), sequence (P10721 26-976 D816H): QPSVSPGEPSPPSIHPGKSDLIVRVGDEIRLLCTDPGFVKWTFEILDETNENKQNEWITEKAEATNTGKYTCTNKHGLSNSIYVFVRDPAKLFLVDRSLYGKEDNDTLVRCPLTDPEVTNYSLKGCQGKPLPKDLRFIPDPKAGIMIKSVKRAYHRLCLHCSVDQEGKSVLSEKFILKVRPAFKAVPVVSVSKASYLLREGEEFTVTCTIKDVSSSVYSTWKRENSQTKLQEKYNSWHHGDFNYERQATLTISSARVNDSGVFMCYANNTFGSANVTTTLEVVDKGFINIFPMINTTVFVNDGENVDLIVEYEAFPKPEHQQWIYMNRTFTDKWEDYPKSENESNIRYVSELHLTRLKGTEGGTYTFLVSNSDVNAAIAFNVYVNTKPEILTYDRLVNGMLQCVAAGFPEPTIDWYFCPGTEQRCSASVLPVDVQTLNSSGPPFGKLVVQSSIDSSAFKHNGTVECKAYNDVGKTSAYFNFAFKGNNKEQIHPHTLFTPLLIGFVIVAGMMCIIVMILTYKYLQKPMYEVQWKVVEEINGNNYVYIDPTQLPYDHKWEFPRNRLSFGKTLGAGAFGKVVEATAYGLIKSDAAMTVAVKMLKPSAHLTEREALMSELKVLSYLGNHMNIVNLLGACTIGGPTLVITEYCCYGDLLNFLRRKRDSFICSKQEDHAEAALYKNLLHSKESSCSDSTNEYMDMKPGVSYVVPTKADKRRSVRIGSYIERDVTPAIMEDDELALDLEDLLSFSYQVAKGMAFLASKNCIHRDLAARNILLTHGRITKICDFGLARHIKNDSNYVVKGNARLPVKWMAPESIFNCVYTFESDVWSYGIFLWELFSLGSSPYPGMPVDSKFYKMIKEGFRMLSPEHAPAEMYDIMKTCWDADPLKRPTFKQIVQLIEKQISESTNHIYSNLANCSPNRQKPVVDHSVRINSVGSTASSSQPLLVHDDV
cSRC, sequence (P12931 whole entry): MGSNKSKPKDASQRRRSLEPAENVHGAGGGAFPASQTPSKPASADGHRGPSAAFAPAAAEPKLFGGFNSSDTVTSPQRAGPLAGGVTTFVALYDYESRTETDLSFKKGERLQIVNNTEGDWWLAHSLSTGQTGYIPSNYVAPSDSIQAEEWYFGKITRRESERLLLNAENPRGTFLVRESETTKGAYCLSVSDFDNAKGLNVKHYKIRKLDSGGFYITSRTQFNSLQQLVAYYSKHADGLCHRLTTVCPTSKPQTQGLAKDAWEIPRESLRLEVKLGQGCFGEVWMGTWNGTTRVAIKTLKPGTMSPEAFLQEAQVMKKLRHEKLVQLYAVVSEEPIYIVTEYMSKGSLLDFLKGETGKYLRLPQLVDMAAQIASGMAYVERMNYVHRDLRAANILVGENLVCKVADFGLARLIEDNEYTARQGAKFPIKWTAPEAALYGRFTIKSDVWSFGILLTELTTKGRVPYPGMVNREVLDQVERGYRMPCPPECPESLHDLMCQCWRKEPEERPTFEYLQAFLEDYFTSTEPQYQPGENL

**Q.** What does the source list for `COc1cc(O)c(CC=C(C)C)c(O)c1C(=O)/C=C/c1ccc(O)cc1` [Xanthohumol, xanthohumol]?
**A.** Kinase activity, % of Control (cKit(D816H); 1 ug/ml): 94 % of Control; Kinase activity, % of Control (cKit(D816H); 5 ug/ml): 45 % of Control; Kinase activity, % of Control (cKit(D816H); 25 ug/ml): 14 % of Control; Kinase activity, % of Control (cSRC; 1 ug/ml): 92 % of Control; Kinase activity, % of Control (cSRC; 5 ug/ml): 50 % of Control; Kinase activity, % of Control (cSRC; 25 ug/ml): 27 % of Control; Kinase activity, % of Control (cSRC; 50 ug/ml): 21 % of Control; Kinase activity, % of Control (CHK1; 1 ug/ml): 121 % of Control; Kinase activity, % of Control (CHK1; 5 ug/ml): 126 % of Control; Kinase activity, % of Control (CHK1; 25 ug/ml): 142 % of Control; Kinase activity, % of Control (CHK1; 50 ug/ml): 149 % of Control; Kinase activity, % of Control (PKCα; 1 ug/ml): 100 % of Control; Kinase activity, % of Control (PKCα; 5 ug/ml): 100 % of Control; Kinase activity, % of Control (PKCα; 50 ug/ml): 83 % of Control; Kinase activity, % of Control (CK1γ1; 1 ug/ml): 101 % of Control; Kinase activity, % of Control (CK1γ1; 5 ug/ml): 79 % of Control; Kinase activity, % of Control (CK1γ1; 25 ug/ml): 50 % of Control; Kinase activity, % of Control (CK1γ1; 50 ug/ml): 26 % of Control; adipogenic / lipogenic response (3T3-L1 adipocytes): comparable to indomethacin and troglitazone; Kinase activity, % of Control (EphA8; 1 ug/ml): 103 % of Control; Kinase activity, % of Control (EphA8; 5 ug/ml): 92 % of Control; Kinase activity, % of Control (EphA8; 25 ug/ml): 29 % of Control; Kinase activity, % of Control (EphA8; 50 ug/ml): 19 % of Control; Kinase activity, % of Control (MAPKAP-K2; 1 ug/ml): 99 % of Control; Kinase activity, % of Control (MAPKAP-K2; 5 ug/ml): 95 % of Control; Kinase activity, % of Control (MAPKAP-K2; 25 ug/ml): 6 % of Control; Kinase activity, % of Control (MAPKAP-K2; 50 ug/ml): 8 % of Control; Kinase activity, % of Control (CK1γ3; 1 ug/ml): 98 % of Control; Kinase activity, % of Control (CK1γ3; 5 ug/ml): 51 % of Control; Kinase activity, % of Control (CK1γ3; 25 ug/ml): 22 % of Control; Kinase activity, % of Control (CK1γ3; 50 ug/ml): 15 % of Control; Kinase activity, % of Control (p70S6K; 1 ug/ml): 94 % of Control; Kinase activity, % of Control (p70S6K; 5 ug/ml): 48 % of Control; Kinase activity, % of Control (p70S6K; 25 ug/ml): 19 % of Control; Kinase activity, % of Control (p70S6K; 50 ug/ml): 7 % of Control
